{
  "source": "patent US12552800B2",
  "about": "“Compounds for diagnosis” (AC IMMUNE SA, priority 2020, dated 2026)",
  "key": {"[1]": {"biological_target": "T1, PD brain-derived a-syn aggregates (Homo sapiens, UniProt P37840)", "T1 construct": "from tissue; host or cells: human PD donor brain, sarkosyl-insoluble 100,000 x g pellet", "experiment": "Micro-radiobinding competition assay against Example-1 [^3H-1] (Table 8)", "type": "binding", "how_it_was_run": "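Human PD brain-derived α-syn aggregates on microarray slides were co-incubated with 6 nM or 20 nM tritiated radioligand and unlabelled compound at 1 μM and 100 nM, some over 0.05 nM–2 μM. Bound signal read by real-time autoradiography; values are % competition, at least two technical replicates, mean of independent experiments.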"}, "[2]": {"biological_target": "T2, Abeta pathological aggregates (Homo sapiens, UniProt P05067)", "T2 construct": "Abeta pathological aggregates present in the human AD brain homogenates; from tissue; host or cells: human AD donor brain, Triton/sucrose-insoluble 100,000 x g pellet", "T2 sequence (P05067 672-713 limits assumed)": "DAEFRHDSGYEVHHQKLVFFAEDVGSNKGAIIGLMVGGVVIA", "experiment": "Radiobinding competition assay against [^3H]-Abeta-Ref on AD brain homogenates (example compound 4)", "type": "binding", "details": "displacement of [^3H]-Abeta-Ref at 10 nM, AD brain-derived homogenates", "method": "The procedure was adapted from the protocol described in Bagchi et al., 2013. Frozen tissue blocks from AD donors were thawed on ice and homogenized in high salt buffer (50 mM Tris-HCl pH 7.5, 0.75M NaCl, 5 mM EDTA) supplemented with protease inhibitors (Complete; Roche 11697498001) at 4° C. using a glass Dounce homogenizer. The homogenate was centrifuged at 100,000×g (38,000 RPM) in an ultracentrifuge (Beckman, XL100K) for one hour at 4° C. using a pre-cooled 70.1 rotor (Beckman, 342184). Pellets were resuspended in high salt buffer supplemented with 1% Triton X-100 and homogenized at 4° C. using a glass Dounce homogenizer. The homogenates were centrifuged again at 100,000×g (38,000 RPM, 70.1 rotor) for one hour at 4° C. Pellets were resuspended in high salt buffer supplemented with 1% Triton X-100 and 1 M sucrose and homogenized at 4° C. using a glass Dounce homogenizer. The homogenates were centrifuged at 100,000×g (38,000 RPM, 70.1 rotor) for one hour at 4° C. […]\nA fixed concentration of AD insoluble fraction was incubated with a tritiated reference Abeta ligand ([^3H]-Abeta-Ref) at 10 nM and increasing concentrations of non-radiolabelled example compound 1 in the range of 400 pM to 2 μM for two hours at RT. […] The filters were analyzed on a Microbeta2 scintillation counter (PerkinElmer). […]"}},
  "data": [
    {"smiles": "Cn1cc(N2Cc3nn(-c4ccc(N5CC[C@@H](F)C5)nc4)cc3C2=O)cn1", "note": "[Example 4]", "values": [
      {"measurement": "Competition at 100 nM (%)", "setting": "[1]; 100 nM non-radiolabelled example compound vs Example-1 [^3H-1] ligand, human PD brain-derived a-syn aggregates", "value": 58, "unit": "%"},
      {"measurement": "Competition at 1 μM (%)", "setting": "[1]; 1 μM non-radiolabelled example compound vs Example-1 [^3H-1] ligand, human PD brain-derived a-syn aggregates", "value": 92, "unit": "%"},
      {"measurement": "Ki", "setting": "[1]; mean of Ki values in independent experiments using PD brain-derived homogenates from three different donors", "value": 50, "unit": "nM"},
      {"measurement": "Ki", "setting": "[2]", "value": 297, "unit": "nM"}
    ]}
  ]
}
